Reference: PubChem BioAssay AID2060331 (Molecular Pharmacology Branch, DTP, NCI, 2025)

System: Hs578T multi-cell spheroids, viability
Experiment: Anticancer human tumor Hs578T cell line growth inhibition [IpAb];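 also: drug exposure lasted 7 days before readout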
Conditions: for IC50: curve of first compound; for viability, T/C: stronger effect = lower value
Outline: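 Combinations with ipatasertib or abemaciclib were tested on tumour spheroids holding HUVEC (25%) and MSC (15%) alongside 60% malignant cells. Top concentration was at or near clinical Cmax (10 microM if undefined), descending in half-log steps.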

Compound: C=CC(=O)N1CCN(c2nc(=O)n(-c3c(C)ccnc3C(C)C)c3nc(-c4c(O)cccc4F)c(F)cc23)C(C)C1 (stereo not given) + CC(C)NCC(C(=O)N1CCN(c2ncnc3c2C(C)CC3O)CC1)c1ccc(Cl)cc1
- IC50 (second compound 0.1 µM): > 10000 nM
- IC50 (second compound 0.316 µM): > 10000 nM
- IC50 (second compound 1 µM): > 10000 nM
- IC50 (second compound 3.16 µM): 3950 nM
- IC50 (second compound 10 µM): < 31.6 nM
- viability, T/C (second compound 0.1 µM, first compound 0.0316 µM): 94.2%
- viability, T/C (second compound 0.1 µM, first compound 0.1 µM): 103%
- viability, T/C (second compound 0.1 µM, first compound 0.316 µM): 102%
- viability, T/C (second compound 0.1 µM, first compound 1 µM): 112%
- viability, T/C (second compound 0.1 µM, first compound 3.16 µM): 94.4%
- viability, T/C (second compound 0.1 µM, first compound 10 µM): 72%
- viability, T/C (second compound 0.316 µM, first compound 0.0316 µM): 83.7%
- viability, T/C (second compound 0.316 µM, first compound 0.1 µM): 90.6%
- viability, T/C (second compound 0.316 µM, first compound 0.316 µM): 90.1%
- viability, T/C (second compound 0.316 µM, first compound 1 µM): 89.5%
- viability, T/C (second compound 0.316 µM, first compound 3.16 µM): 84%
- viability, T/C (second compound 0.316 µM, first compound 10 µM): 65.5%
- viability, T/C (second compound 1 µM, first compound 0.0316 µM): 70.8%
- viability, T/C (second compound 1 µM, first compound 0.1 µM): 70.9%
- viability, T/C (second compound 1 µM, first compound 0.316 µM): 69.3%
- viability, T/C (second compound 1 µM, first compound 1 µM): 75.1%
- viability, T/C (second compound 1 µM, first compound 3.16 µM): 66.2%
- viability, T/C (second compound 1 µM, first compound 10 µM): 55.1%
- viability, T/C (second compound 3.16 µM, first compound 0.0316 µM): 56.7%
- viability, T/C (second compound 3.16 µM, first compound 0.1 µM): 59.6%
- viability, T/C (second compound 3.16 µM, first compound 0.316 µM): 55.1%
- viability, T/C (second compound 3.16 µM, first compound 1 µM): 54.5%
- viability, T/C (second compound 3.16 µM, first compound 3.16 µM): 52.8%
- viability, T/C (second compound 3.16 µM, first compound 10 µM): 41.9%
- viability, T/C (second compound 10 µM, first compound 0.0316 µM): 45.1%
- viability, T/C (second compound 10 µM, first compound 0.1 µM): 50.4%
- viability, T/C (second compound 10 µM, first compound 0.316 µM): 46.9%
- viability, T/C (second compound 10 µM, first compound 1 µM): 49.1%
- viability, T/C (second compound 10 µM, first compound 3.16 µM): 46.5%
- viability, T/C (second compound 10 µM, first compound 10 µM): 20.4%

Compound: CC(=O)c1c(C)c2cnc(Nc3ccc(N4CCNCC4)cn3)nc2n(C2CCCC2)c1=O + CC(C)NCC(C(=O)N1CCN(c2ncnc3c2C(C)CC3O)CC1)c1ccc(Cl)cc1
- IC50 (second compound 0.1 µM): > 300 nM
- IC50 (second compound 0.316 µM): > 300 nM
- IC50 (second compound 1 µM): 20 nM
- IC50 (second compound 3.16 µM): 11.1 nM
- IC50 (second compound 10 µM): < 0.949 nM
- viability, T/C (second compound 0.1 µM, first compound 0.000949 µM): 96.7%
- viability, T/C (second compound 0.1 µM, first compound 0.003 µM): 86.1%
- viability, T/C (second compound 0.1 µM, first compound 0.00949 µM): 83.3%
- viability, T/C (second compound 0.1 µM, first compound 0.03 µM): 71.4%
- viability, T/C (second compound 0.1 µM, first compound 0.0949 µM): 64.2%
- viability, T/C (second compound 0.1 µM, first compound 0.3 µM): 60.1%
- viability, T/C (second compound 0.316 µM, first compound 0.000949 µM): 92.7%
- viability, T/C (second compound 0.316 µM, first compound 0.003 µM): 79.7%
- viability, T/C (second compound 0.316 µM, first compound 0.00949 µM): 70.3%
- viability, T/C (second compound 0.316 µM, first compound 0.03 µM): 62.3%
- viability, T/C (second compound 0.316 µM, first compound 0.0949 µM): 59.4%
- viability, T/C (second compound 0.316 µM, first compound 0.3 µM): 49.5%
- viability, T/C (second compound 1 µM, first compound 0.000949 µM): 62.7%
- viability, T/C (second compound 1 µM, first compound 0.003 µM): 67.7%
- viability, T/C (second compound 1 µM, first compound 0.00949 µM): 56.1%
- viability, T/C (second compound 1 µM, first compound 0.03 µM): 48.6%
- viability, T/C (second compound 1 µM, first compound 0.0949 µM): 43%
- viability, T/C (second compound 1 µM, first compound 0.3 µM): 47.2%
- viability, T/C (second compound 3.16 µM, first compound 0.000949 µM): 55.6%
- viability, T/C (second compound 3.16 µM, first compound 0.003 µM): 58.8%
- viability, T/C (second compound 3.16 µM, first compound 0.00949 µM): 52.8%
- viability, T/C (second compound 3.16 µM, first compound 0.03 µM): 41.2%
- viability, T/C (second compound 3.16 µM, first compound 0.0949 µM): 42.3%
- viability, T/C (second compound 3.16 µM, first compound 0.3 µM): 38.8%
- viability, T/C (second compound 10 µM, first compound 0.000949 µM): 48.7%
- viability, T/C (second compound 10 µM, first compound 0.003 µM): 47.5%
- viability, T/C (second compound 10 µM, first compound 0.00949 µM): 41.7%
- viability, T/C (second compound 10 µM, first compound 0.03 µM): 35.5%
- viability, T/C (second compound 10 µM, first compound 0.0949 µM): 35.6%
- viability, T/C (second compound 10 µM, first compound 0.3 µM): 37.3%
